Assay results as given in ChEMBL document CHEMBL1909046, “DrugMatrix in vitro pharmacology data”.

Columns and labels:
[1] = biological target: T1, Nitric oxide synthase, inducible (Mus musculus, UniProt P29477); set-up: species or system Escherichia coli;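 note: inhibition of iNOS enzyme activity measured with L-arginine as substrate; in other assays of this panel Not Active means under 50% inhibition at 10 µM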
T1 sequence (P29477 whole entry): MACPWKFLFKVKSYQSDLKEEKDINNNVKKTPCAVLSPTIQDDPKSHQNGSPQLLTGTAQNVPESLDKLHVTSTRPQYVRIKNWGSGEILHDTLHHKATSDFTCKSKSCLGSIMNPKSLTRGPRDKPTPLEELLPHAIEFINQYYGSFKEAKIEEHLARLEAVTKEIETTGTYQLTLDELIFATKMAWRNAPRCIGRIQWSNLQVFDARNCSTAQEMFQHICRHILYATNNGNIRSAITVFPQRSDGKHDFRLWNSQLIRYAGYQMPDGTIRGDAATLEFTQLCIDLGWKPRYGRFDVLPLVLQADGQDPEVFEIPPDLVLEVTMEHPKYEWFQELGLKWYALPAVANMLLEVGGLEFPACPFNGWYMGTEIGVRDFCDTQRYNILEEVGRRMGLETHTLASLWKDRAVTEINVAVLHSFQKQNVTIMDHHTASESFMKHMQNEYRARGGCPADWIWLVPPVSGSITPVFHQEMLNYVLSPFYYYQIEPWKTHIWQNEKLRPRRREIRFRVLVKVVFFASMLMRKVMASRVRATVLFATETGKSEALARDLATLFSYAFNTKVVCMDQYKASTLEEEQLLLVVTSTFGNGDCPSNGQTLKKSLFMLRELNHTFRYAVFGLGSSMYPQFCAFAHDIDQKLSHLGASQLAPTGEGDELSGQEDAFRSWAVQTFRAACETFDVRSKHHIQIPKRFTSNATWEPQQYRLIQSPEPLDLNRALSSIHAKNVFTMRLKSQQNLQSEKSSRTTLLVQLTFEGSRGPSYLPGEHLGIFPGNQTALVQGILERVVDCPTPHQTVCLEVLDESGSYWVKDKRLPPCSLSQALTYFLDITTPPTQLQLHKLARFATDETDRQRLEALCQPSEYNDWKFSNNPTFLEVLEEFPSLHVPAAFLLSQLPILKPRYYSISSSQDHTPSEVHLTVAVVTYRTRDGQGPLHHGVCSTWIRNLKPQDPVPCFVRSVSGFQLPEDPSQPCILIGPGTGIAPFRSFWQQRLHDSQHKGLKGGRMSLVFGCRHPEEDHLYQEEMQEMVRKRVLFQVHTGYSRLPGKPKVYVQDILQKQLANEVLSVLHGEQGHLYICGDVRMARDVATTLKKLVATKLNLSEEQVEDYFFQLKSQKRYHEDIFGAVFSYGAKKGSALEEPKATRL

[2] = biological target: Prostaglandin G/H synthase 1 (Homo sapiens, UniProt P23219); assay: biochemical; format: tissue-based, Platelet; conditions: platelet;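 note: inhibition of COX-1 enzyme activity, with arachidonic acid supplied as substrate; in other assays of this panel Not Active means under 50% inhibition at 10 µM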
Prostaglandin G/H synthase 1, sequence (P23219 whole entry): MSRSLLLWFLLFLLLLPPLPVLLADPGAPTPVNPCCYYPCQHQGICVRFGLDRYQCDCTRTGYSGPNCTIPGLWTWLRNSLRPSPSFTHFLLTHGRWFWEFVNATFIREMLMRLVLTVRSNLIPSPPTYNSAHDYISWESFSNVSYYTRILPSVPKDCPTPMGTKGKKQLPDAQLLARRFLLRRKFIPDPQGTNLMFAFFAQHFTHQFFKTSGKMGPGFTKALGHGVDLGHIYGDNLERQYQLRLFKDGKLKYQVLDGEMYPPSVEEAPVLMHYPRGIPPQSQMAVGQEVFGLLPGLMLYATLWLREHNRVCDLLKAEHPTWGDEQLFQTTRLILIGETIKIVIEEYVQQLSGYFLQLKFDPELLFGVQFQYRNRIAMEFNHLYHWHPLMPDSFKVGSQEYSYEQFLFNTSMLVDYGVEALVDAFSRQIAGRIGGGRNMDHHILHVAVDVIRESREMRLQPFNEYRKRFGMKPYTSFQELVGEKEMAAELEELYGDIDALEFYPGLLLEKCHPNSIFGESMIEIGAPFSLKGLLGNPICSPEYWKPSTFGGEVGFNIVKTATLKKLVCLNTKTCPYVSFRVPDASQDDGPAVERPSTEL

[3] = DRUGMATRIX: Calcium Channel Type L, Phenylalkylamine radioligand binding (ligand: [3H] (-)-Desmethoxyverapamil (D-888)); format: cell membranes, Rattus norvegicus, Wistar, Brain, Membrane; conditions: Not Active = under 50% inhibition at 10 µM
[4] = biological target: Matrix metalloproteinase-9 (Homo sapiens, UniProt P14780); format: cell-based;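 note: inhibition of isolated MMP-9 enzyme activity toward a synthetic peptide substrate, from the DrugMatrix protease screening panel; in other assays of this panel Not Active means under 50% inhibition at 10 µM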
Matrix metalloproteinase-9, sequence (P14780 whole entry): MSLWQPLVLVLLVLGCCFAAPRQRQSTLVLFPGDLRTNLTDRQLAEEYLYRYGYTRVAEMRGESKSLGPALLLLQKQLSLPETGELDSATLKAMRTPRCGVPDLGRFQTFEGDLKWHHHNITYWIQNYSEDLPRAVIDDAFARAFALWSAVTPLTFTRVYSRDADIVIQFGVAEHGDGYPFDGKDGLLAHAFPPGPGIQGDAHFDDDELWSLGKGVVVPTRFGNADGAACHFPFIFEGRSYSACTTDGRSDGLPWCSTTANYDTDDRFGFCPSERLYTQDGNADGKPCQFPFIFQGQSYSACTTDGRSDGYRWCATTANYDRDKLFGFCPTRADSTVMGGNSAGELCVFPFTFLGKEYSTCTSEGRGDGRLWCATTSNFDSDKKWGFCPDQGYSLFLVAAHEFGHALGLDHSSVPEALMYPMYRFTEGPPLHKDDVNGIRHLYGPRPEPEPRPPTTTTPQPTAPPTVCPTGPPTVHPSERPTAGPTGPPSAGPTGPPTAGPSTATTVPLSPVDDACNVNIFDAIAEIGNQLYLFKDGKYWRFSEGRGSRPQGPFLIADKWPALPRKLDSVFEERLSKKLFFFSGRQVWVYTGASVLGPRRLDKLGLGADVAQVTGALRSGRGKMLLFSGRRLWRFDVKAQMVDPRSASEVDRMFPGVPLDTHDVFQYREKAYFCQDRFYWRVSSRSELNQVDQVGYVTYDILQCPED

[5] = biological target: T2, Polyunsaturated fatty acid lipoxygenase ALOX15 (Oryctolagus cuniculus, UniProt P12530); assay: biochemical; format: tissue-based, Reticulocytes; conditions: reticulocytes;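 note: inhibition of 15-lipoxygenase enzyme activity measured with linoleic acid as the substrate; in other assays of this panel Not Active means under 50% inhibition at 10 µM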
T2 sequence (P12530 whole entry): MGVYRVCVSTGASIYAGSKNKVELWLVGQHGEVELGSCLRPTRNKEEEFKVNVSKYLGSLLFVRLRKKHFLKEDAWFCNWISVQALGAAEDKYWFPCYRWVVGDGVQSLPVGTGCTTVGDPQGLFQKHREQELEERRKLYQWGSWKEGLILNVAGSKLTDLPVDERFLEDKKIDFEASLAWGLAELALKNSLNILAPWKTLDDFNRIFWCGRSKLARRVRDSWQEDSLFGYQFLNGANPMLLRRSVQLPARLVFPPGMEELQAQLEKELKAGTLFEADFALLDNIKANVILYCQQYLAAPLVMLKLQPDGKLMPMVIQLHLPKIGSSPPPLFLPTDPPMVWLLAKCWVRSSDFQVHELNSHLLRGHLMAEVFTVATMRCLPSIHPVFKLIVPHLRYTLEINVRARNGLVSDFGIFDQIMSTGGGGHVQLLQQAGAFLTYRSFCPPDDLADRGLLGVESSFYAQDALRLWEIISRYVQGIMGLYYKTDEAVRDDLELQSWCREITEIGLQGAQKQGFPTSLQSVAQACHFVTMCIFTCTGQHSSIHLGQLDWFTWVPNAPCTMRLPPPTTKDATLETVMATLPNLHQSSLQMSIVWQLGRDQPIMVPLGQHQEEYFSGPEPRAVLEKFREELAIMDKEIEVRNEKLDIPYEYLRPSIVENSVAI

[6] = biological target: T3, Neuropeptide Y receptor type 1 (Homo sapiens, UniProt P25929); format: cell membranes, Membrane; conditions: sk-n-mc; note: in other assays of this panel Not Active means under 50% inhibition at 10 µM
T3 sequence (P25929 whole entry): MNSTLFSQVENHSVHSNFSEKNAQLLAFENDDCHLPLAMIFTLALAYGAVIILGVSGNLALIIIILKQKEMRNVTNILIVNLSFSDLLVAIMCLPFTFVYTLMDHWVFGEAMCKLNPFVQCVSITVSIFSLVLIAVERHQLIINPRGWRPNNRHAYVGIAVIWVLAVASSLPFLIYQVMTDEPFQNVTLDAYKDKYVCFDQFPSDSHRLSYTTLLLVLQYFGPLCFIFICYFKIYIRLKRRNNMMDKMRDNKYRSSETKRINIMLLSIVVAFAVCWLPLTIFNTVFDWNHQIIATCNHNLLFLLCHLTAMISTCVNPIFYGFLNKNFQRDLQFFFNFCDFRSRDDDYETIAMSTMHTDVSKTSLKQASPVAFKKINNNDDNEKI

[7] = biological target: Sodium-dependent dopamine transporter (Homo sapiens, UniProt Q01959); assay: DRUGMATRIX: Dopamine Transporter radioligand binding (ligand: [125I] RTI-55); format: cell membranes, CHO-K1, Membrane; conditions: cho-k1; Not Active = under 50% inhibition at 10 µM
Sodium-dependent dopamine transporter, sequence (Q01959 whole entry): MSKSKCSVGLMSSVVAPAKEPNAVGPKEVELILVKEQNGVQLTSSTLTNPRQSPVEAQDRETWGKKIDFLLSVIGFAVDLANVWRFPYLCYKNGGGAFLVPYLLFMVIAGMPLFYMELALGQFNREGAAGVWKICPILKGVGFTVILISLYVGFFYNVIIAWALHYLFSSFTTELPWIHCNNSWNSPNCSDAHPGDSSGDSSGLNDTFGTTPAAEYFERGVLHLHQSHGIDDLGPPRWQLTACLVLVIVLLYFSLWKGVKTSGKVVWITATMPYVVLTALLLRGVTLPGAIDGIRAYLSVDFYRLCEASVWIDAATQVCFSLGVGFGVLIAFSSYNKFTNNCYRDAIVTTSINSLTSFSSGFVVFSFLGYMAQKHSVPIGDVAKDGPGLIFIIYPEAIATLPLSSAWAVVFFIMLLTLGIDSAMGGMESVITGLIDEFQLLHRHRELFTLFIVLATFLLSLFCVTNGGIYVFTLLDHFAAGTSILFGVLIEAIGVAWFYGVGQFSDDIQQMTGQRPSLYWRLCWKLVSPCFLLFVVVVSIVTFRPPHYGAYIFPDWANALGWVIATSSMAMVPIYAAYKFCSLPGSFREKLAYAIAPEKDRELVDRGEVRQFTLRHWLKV

[8] = biological target: T4, Alpha-2A adrenergic receptor (Homo sapiens, UniProt P08913); format: cell membranes, Sf9, Membrane; conditions: sf9; note: in other assays of this panel Not Active means under 50% inhibition at 10 µM
T4 sequence (P08913 whole entry): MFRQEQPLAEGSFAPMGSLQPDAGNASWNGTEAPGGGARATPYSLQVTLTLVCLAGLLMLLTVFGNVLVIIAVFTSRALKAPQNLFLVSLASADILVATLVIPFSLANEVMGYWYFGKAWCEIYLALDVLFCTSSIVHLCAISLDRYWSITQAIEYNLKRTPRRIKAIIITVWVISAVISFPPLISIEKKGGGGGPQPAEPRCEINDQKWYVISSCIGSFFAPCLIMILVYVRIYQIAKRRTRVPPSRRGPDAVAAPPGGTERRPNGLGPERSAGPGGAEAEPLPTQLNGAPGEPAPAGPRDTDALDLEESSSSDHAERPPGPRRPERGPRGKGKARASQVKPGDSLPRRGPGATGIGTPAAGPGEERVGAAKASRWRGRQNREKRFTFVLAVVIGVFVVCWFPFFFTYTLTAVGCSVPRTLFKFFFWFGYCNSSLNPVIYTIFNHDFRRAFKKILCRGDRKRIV

Nc1ccc(S(=O)(=O)Nc2ccnn2-c2ccccc2)cc1 [SULFAPHENAZOLE]
Not Active: IC50 [1] | IC50 [2] | IC50 [3] | Ki [3] | IC50 [4] | IC50 [5] | IC50 [6] | IC50 [7] | IC50 [8]

C=CC[C@@H]1/C=C(\C)C[C@H](C)C[C@H](OC)[C@H]2O[C@@](O)(C(=O)C(=O)N3CCCC[C@H]3C(=O)O[C@H](/C(C)=C/[C@@H]3CC[C@@H](O)[C@H](OC)C3)[C@H](C)[C@@H](O)CC1=O)[C@H](C)C[C@@H]2OC [TACROLIMUS ANHYDROUS]
Not Active: IC50 [1] | IC50 [2] | IC50 [3] | Ki [3] | IC50 [4] | IC50 [5] | IC50 [6] | IC50 [7] | IC50 [8]

CC1CN(c2cc3c(cc2F)c(=O)c(C(=O)O)cn3-c2ccc(F)cc2F)CCN1 (configuration not stated) [TEMAFLOXACIN]
Not Active: IC50 [1] | IC50 [2] | IC50 [3] | Ki [3] | IC50 [4] | IC50 [5] | IC50 [6] | IC50 [7] | IC50 [8]

CC(C)(C)NCC(O)c1cc(O)cc(O)c1 (configuration not stated) [TERBUTALINE]
Not Active: IC50 [1] | IC50 [2] | IC50 [3] | Ki [3] | IC50 [4] | IC50 [5] | IC50 [6] | IC50 [7] | IC50 [8]

CN(C)[C@@H]1C(O)=C(C(N)=O)C(=O)[C@@]2(O)C(O)=C3C(=O)c4c(O)cccc4[C@@](C)(O)[C@H]3C[C@@H]12 [TETRACYCLINE]
Not Active: IC50 [1] | IC50 [2] | IC50 [3] | Ki [3] | IC50 [4] | IC50 [5] | IC50 [6] | IC50 [7] | IC50 [8]

c1ccc2[nH]c(-c3cscn3)nc2c1 [THIABENDAZOLE]
Not Active: IC50 [1] | IC50 [2] | IC50 [3] | Ki [3] | IC50 [4] | IC50 [5] | IC50 [6] | IC50 [7] | IC50 [8]

Cc1ccc(C(=O)C(C)CN2CCCCC2)cc1 (configuration not stated) [TOLPERISONE]
Not Active: IC50 [1] | IC50 [2] | IC50 [3] | Ki [3] | IC50 [4] | IC50 [5] | IC50 [6] | IC50 [7] | IC50 [8]

NC(CO)(CO)CO [TROMETHAMINE]
Not Active: IC50 [1] | IC50 [2] | IC50 [3] | Ki [3] | IC50 [4] | IC50 [5] | IC50 [6] | IC50 [7] | IC50 [8]

CN1[C@@H]2CC[C@H]1C[C@@H](OC(=O)c1c[nH]c3ccccc13)C2 [TROPISETRON]
Not Active: IC50 [1] | IC50 [2] | IC50 [3] | Ki [3] | IC50 [4] | IC50 [5] | IC50 [6] | IC50 [7] | IC50 [8]

COc1cc(C(=O)NC2CCCNC2)cc(OC)c1OC (configuration not stated) [TROXIPIDE]
Not Active: IC50 [1] | IC50 [2] | IC50 [3] | Ki [3] | IC50 [4] | IC50 [5] | IC50 [6] | IC50 [7] | IC50 [8]

CC(C)[C@H](N)C(=O)OCCOCn1cnc2c(=O)nc(N)[nH]c21 [VALACYCLOVIR]
Not Active: IC50 [1] | IC50 [2] | IC50 [3] | Ki [3] | IC50 [4] | IC50 [5] | IC50 [6] | IC50 [7] | IC50 [8]

CN[C@H](CC(C)C)C(=O)N[C@H]1C(=O)N[C@@H](CC(N)=O)C(=O)N[C@H]2C(=O)N[C@H]3C(=O)N[C@H](C(=O)N[C@H](C(=O)O)c4cc(O)cc(O)c4-c4cc3ccc4O)[C@H](O)c3ccc(c(Cl)c3)Oc3cc2cc(c3O[C@@H]2O[C@H](CO)[C@@H](O)[C@H](O)[C@H]2O[C@H]2C[C@](C)(N)[C@H](O)[C@H](C)O2)Oc2ccc(cc2Cl)[C@H]1O [VANCOMYCIN]
Not Active: IC50 [1] | IC50 [2] | IC50 [3] | Ki [3] | IC50 [4] | IC50 [5] | IC50 [6] | IC50 [7] | IC50 [8]

COc1ccc(C(CN(C)C)C2(O)CCCCC2)cc1 (configuration not stated) [VENLAFAXINE]
Not Active: IC50 [1] | IC50 [2] | IC50 [3] | Ki [3] | IC50 [4] | IC50 [5] | IC50 [6] | IC50 [7] | IC50 [8]
